Measured values reported in patent US11117947B2, “Double-acylated GLP-1 derivatives” (Novo Nordisk A/S, priority 2011, dated 2021).
Numbered stars: 1 amine (or outer) side, 2 acyl side, 3 side chain; on linkers, the order of the positions; unused ones are H or OH. Square brackets hold non-standard residues; d marks the D form. Side chains are listed from the residue outwards. Peptide text beside a SMILES is read from it. * marks the point of attachment. Decanoyl(10-(4-HOOC-PhO)) = O=C(O)c1ccc(OCCCCCCCCCC(=O)*)cc1; γGlu = O=C(O)[C@H](CCC(=O)[*:2])N[*:1]; C14 diacid = O=C(O)CCCCCCCCCCCCC(=O)*; AEEA = NCCOCCOCC(=O)O; Aib = CC(C)(N)C(=O)O

Assays:
human GLP-1 receptor [1] = biological target: T1, human GLP-1 receptor (Homo sapiens, UniProt P43220); assay: GLP-1 receptor binding: displacement of 125I-GLP-1 (SPA) at low and high albumin; conditions: 2.0% HSA vs 0.001% HSA
T1 construct: expressed in transfected cells; membranes
T1 sequence (P43220 24-463): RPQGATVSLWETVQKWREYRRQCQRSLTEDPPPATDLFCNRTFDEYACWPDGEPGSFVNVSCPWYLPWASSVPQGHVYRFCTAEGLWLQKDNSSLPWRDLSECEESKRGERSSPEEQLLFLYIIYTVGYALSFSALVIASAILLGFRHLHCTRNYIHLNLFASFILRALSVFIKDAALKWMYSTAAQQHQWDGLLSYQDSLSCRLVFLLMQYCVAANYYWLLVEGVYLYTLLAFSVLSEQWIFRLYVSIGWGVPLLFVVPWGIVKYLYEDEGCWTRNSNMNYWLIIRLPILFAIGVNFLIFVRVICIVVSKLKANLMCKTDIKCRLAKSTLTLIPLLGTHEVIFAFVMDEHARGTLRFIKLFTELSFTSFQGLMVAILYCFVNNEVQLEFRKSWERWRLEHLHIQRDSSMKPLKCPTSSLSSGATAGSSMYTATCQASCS
How it was run: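 Membranes from hamster cells stably transfected with the receptor, with WGA SPA beads and 0.06 nM [^125I]-GLP-1(7-36)NH2, incubated 120 min at 30 °C with shaking.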

[2] = Pharmacokinetics in rat: half-life after i.v. administration; type: in vivo; conditions: plasma, iv, 6 nmol/kg, male Sprague Dawley rats, approximately 4 rats per group, read-out: t½/h (half-life in rat) (converted)
Method: In vivo pharmacokinetic studies in rats were performed with the GLP-1 derivatives of Examples 2, 10, 17-18, and 31, as described in the following. Semaglutide was included for comparison.
Male Sprague Dawley rats of same age with a body weight of approximately 400 g were obtained from Taconic (Denmark) and assigned to the treatments by simple randomisation on body weight, approximately 4 rats per group, so that all animals in each group were of similar body weight.
The GLP-1 derivatives (approximately 6 nmol/ml) were dissolved in 50 mM sodium phosphate, 145 mM sodium chloride, 0.05% tween 80, pH 7.4. Intravenous injections (1.0 ml/kg) of the compounds were given through a catheter implanted in the right jugular vein. Blood was sampled from vena sublingualis for 5 days post dosing. Blood samples (200 μl) were collected in EDTA buffer (8 mM) and then centrifuged at 4° C. and 10000 G for 5 minutes. Plasma samples were kept at −20° C. until analyzed for plasma concentration of the respective GLP-1 compound.
The plasma concentrations of the GLP-1 compounds were determined using a Luminescence Oxygen Channeling Immunoasssay (LOCI), generally as described for the determination of insulin by Poulsen and Jensen in Journal of Biomolecular Screening 2007, vol. 12, p. 240-247. The donor beads were coated with streptavidin, while acceptor beads were conjugated with a monoclonal antibody recognising a mid-/C-terminal epitope of the peptide. Another monoclonal antibody, specific for the N-terminus, was biotinylated. The three reactants were combined with the analyte and formed a two-sited immuno-complex. Illumination of the complex released singlet oxygen atoms from the donor beads, which were channeled into the acceptor beads and triggered chemiluminescence which was measured in an Envision plate reader. The amount of light was proportional to the concentration of the compound.
Plasma concentration-time profiles were analyzed using Phoenix WinNonLin ver. 6.2, Pharsight Inc., Mountain View, Calif., USA), and the half-life (T1/2) calculated using individual plasma concentration-time profiles from each animal.

human GLP-1 receptor [3] = biological target: T1, human GLP-1 receptor; assay: In vitro potency: stimulation of cAMP formation (AlphaScreen cAMP Assay) in membranes expressing the human GLP-1 receptor; type: biochemical; conditions: membranes from BHK467-12A (tk-ts13) expressing the human GLP-1 receptor
Method: Purified plasma membranes from a stable transfected cell line, BHK467-12A (tk-ts13), expressing the human GLP-1 receptor were stimulated with the GLP-1 analogue or derivative in question, and the potency of cAMP production was measured using the AlphaScreen™ cAMP Assay Kit from Perkin Elmer Life Sciences. The basic principle of the AlphaScreen Assay is a competition between endogenous cAMP and exogenously added biotin-cAMP. The capture of cAMP is achieved by using a specific antibody conjugated to acceptor beads.
A stable transfected cell line and a high expressing clone were selected for screening. The cells were grown at 5% CO2 in DMEM, 5% FCS, 1% Pen/Strep (Penicillin/Streptomycin) and 0.5 mg/ml of the selection marker G418.
Cells at approximately 80% confluence were washed 2× with PBS and harvested with Versene (aqueous solution of the tetrasodium salt of ethylenediaminetetraacetic acid), centrifuged 5 min at 1000 rpm and the supernatant removed. The additional steps were all performed on ice. The cell pellet was homogenised by the Ultrathurax for 20-30 s in 10 ml of Buffer 1 (20 mM Na-HEPES, 10 mM EDTA, pH=7.4), centrifuged 15 min at 20,000 rpm and the pellet resuspended in 10 ml of Buffer 2 (20 mM Na-HEPES, 0.1 mM EDTA, pH=7.4). The suspension was homogenised for 20-30 s and centrifuged 15 min at 20,000 rpm. Suspension in Buffer 2, homogenisation and centrifugation was repeated once and the membranes were resuspended in Buffer 2. The protein concentration was determined and the membranes stored at −80° C. until use.
The final volume per well was 50 μl.
AlphaScreen cAMP Assay Kit from Perkin Elmer Life Sciences (cat. No: 6760625M); containing Anti-cAMP Acceptor beads (10 U/μl), Streptavidin Donor beads (10 U/μl) and Biotinylated-cAMP (133 U/μl).
cAMP standard (dilution factor in assay=5): cAMP Solution: 5 μL of a 5 mM cAMP-stock+495 μL AlphaScreen Buffer.
Membranes were prepared from hGLP-1/BHK 467-12A cells with a concentration of 6 μg/well corresponding to 0.6 mg/ml (the amount of membranes used pr. well may vary)
“No membranes”: Acceptor Beads (15 μg/ml final) in AlphaScreen buffer
“6 μg/well membranes”: membranes+Acceptor Beads (15 μg/ml final) in AlphaScreen buffer
An aliquot (10 μl) of “No membranes” was added to the cAMP standard (per well in duplicate wells) and the positive and negative controls
An aliquot (10 μl) of “6 μg/well membranes” was added to GLP-1 and analogues (per well in duplicate or triplicate wells)
Pos. Control: 10 μl “no membranes”+10 μl AlphaScreen Buffer
Neg. Control: 10 μl “no membranes”+10 μl cAMP Stock Solution (50 μM)
1. Make the AlphaScreen Buffer.
2. Dissolve and dilute the GLP-1/Analogues/cAMP standard in AlphaScreen Buffer.
4. Add the cAMP/GLP-1/Analogues to the plate: 10 μl per well.
5. Prepare membrane/Acceptor Beads solution and add this to the plates: 10 μl per well.
6. Add the Donor Beads: 30 μl per well.

[4] = Estimate of oral bioavailability: gut injection in rat (caprate), exposure in plasma; type: in vivo; conditions: injection in jejunum, 1000 uM in 55 mg/ml sodium caprate, plasma concentration (pM) at 30 min divided by dosing solution concentration (μM), mean n=4
How it was run: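 Male Sprague Dawley rats (~240 g, n=4) received 100 μl of 1000 uM derivative in 55 mg/ml sodium caprate by catheter into proximal or mid jejunum. Tail-vein EDTA plasma was sampled up to 240 min. Peptide was quantified by two-antibody bead chemiluminescence immunoassay, giving mean concentration-time profiles (pmol/l).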

## CC[C@H](C)[C@H](NC(=O)[C@H](Cc1ccccc1)NC(=O)[C@H](CCCCNC(=O)COCCOCCNC(=O)COCCOCCNC(=O)CC[C@H](NC(=O)CCCCCCCCCCCCC(=O)O)C(=O)O)NC(=O)[C@H](CCCNC(=N)N)NC(=O)[C@H](C)NC(=O)[C@H](C)NC(=O)[C@H](CCC(N)=O)NC(=O)[C@H](CCC(=O)O)NC(=O)[C@H](CCC(=O)O)NC(=O)[C@H](CC(C)C)NC(=O)[C@H](Cc1ccc(O)cc1)NC(=O)[C@H](CO)NC(=O)[C@H](CO)NC(=O)[C@@H](NC(=O)[C@H](CC(=O)O)NC(=O)[C@H](CO)NC(=O)[C@@H](NC(=O)[C@H](CCCCNC(=O)COCCOCCNC(=O)COCCOCCNC(=O)CC[C@H](NC(=O)CCCCCCCCCCCCC(=O)O)C(=O)O)NC(=O)[C@@H](NC(=O)CNC(=O)[C@H](CCC(=O)O)NC(=O)C(C)(C)NC(=O)[C@@H](N)Cc1c[nH]cn1)[C@@H](C)O)[C@@H](C)O)C(C)C)C(=O)N[C@@H](C)C(=O)N[C@@H](Cc1c[nH]cn1)C(=O)N[C@@H](CC(C)C)C(=O)N[C@H](C(=O)N[C@@H](CCC(N)=O)C(=O)NCC(=O)N[C@@H](CCCNC(=N)N)C(=O)NCC(=O)O)C(C)C [Example 18, N^ε12-[2-[2-[2-[[2-[2-[2-[[(4S)-4-carboxy-4-(13-carboxytridecanoylamino)butanoyl]amino]ethoxy]ethoxy]acetyl]amino]ethoxy]ethoxy]acetyl], N^ε27-[2-[2-[2-[[2-[2-[2-[[(4S)-4-carboxy-4-(13-carboxytridecanoylamino)butanoyl]amino]ethoxy]ethoxy]acetyl]amino]ethoxy]ethoxy]acetyl]-[Aib^8,Lys^12,Glu^22,Arg^26,Lys^27,His^31,Gln^34]-GLP-1-(7-37)-peptide] (H-H[Aib]EGTK([AEEA-AEEA-γGlu-C14 diacid])TSDVSSYLEEQAARK([AEEA-AEEA-γGlu-C14 diacid])FIAHLVQGRG-OH)
Human GLP-1 receptor [1]
  Ratio [(IC50/nM) high HSA]/[(IC50/nM) low HSA]: 2.1
[2]
  half-life: 10 h

## CC[C@H](C)[C@H](NC(=O)[C@H](Cc1ccccc1)NC(=O)[C@H](CCCCNC(=O)COCCOCCNC(=O)COCCOCCNC(=O)CC[C@H](NC(=O)CCCCCCCCCCCCC(=O)O)C(=O)O)NC(=O)[C@H](CCCNC(=N)N)NC(=O)[C@H](C)NC(=O)[C@H](C)NC(=O)[C@H](CCC(N)=O)NC(=O)[C@H](CCCCNC(=O)COCCOCCNC(=O)COCCOCCNC(=O)CC[C@H](NC(=O)CCCCCCCCCCCCC(=O)O)C(=O)O)NC(=O)[C@H](CCC(=O)O)NC(=O)[C@H](CC(C)C)NC(=O)[C@H](Cc1ccc(O)cc1)NC(=O)[C@H](CO)NC(=O)[C@H](CO)NC(=O)[C@@H](NC(=O)[C@H](CC(=O)O)NC(=O)[C@H](CO)NC(=O)[C@@H](NC(=O)[C@H](Cc1ccccc1)NC(=O)[C@@H](NC(=O)CNC(=O)[C@H](CCC(=O)O)NC(=O)C(C)(C)NC(=O)[C@@H](N)Cc1c[nH]cn1)[C@@H](C)O)[C@@H](C)O)C(C)C)C(=O)N[C@@H](C)C(=O)N[C@@H](Cc1c[nH]cn1)C(=O)N[C@@H](CC(C)C)C(=O)N[C@H](C(=O)NCC(=O)O)C(C)C [Example 19, N^ε22-[2-[2-[2-[[2-[2-[2-[[(4S)-4-carboxy-4-(13-carboxytridecanoylamino)butanoyl]amino]ethoxy]ethoxy]acetyl]amino]ethoxy]ethoxy]acetyl], N^ε27-[2-[2-[2-[[2-[2-[2-[[(4S)-4-carboxy-4-(13-carboxytridecanoylamino)butanoyl]amino]ethoxy]ethoxy]acetyl]amino]ethoxy]ethoxy]acetyl]-[Aib^8,Lys^22,Arg^26,Lys^27,His^31,Gly^34]-GLP-1-(7-34)-peptide] (H-H[Aib]EGTFTSDVSSYLEK([AEEA-AEEA-γGlu-C14 diacid])QAARK([AEEA-AEEA-γGlu-C14 diacid])FIAHLVG-OH)
Human GLP-1 receptor [1]
  Ratio [(IC50/nM) high HSA]/[(IC50/nM) low HSA]: 60
Human GLP-1 receptor [3]
  EC50: 0.052 nM
[4]
  Dose-corrected exposure at 30 min: 61

## CC[C@H](C)[C@H](NC(=O)[C@H](Cc1ccccc1)NC(=O)[C@H](CCCCNC(=O)COCCOCCNC(=O)COCCOCCNC(=O)CC[C@H](NC(=O)CCCCCCCCCOc1ccc(C(=O)O)cc1)C(=O)O)NC(=O)[C@H](CCCNC(=N)N)NC(=O)[C@H](C)NC(=O)[C@H](C)NC(=O)[C@H](CCC(N)=O)NC(=O)[C@H](CCC(=O)O)NC(=O)[C@H](CCC(=O)O)NC(=O)[C@H](CC(C)C)NC(=O)[C@H](Cc1ccc(O)cc1)NC(=O)[C@H](CO)NC(=O)[C@H](CO)NC(=O)[C@@H](NC(=O)[C@H](CC(=O)O)NC(=O)[C@H](CO)NC(=O)[C@@H](NC(=O)[C@H](Cc1ccccc1)NC(=O)[C@@H](NC(=O)CNC(=O)[C@H](CCC(=O)O)NC(=O)C(C)(C)NC(=O)[C@@H](N)Cc1c[nH]cn1)[C@@H](C)O)[C@@H](C)O)C(C)C)C(=O)N[C@@H](CCC(=O)O)C(=O)N[C@@H](Cc1c[nH]c2ccccc12)C(=O)N[C@@H](CC(C)C)C(=O)N[C@H](C(=O)N[C@@H](CCCNC(=N)N)C(=O)NCC(=O)N[C@@H](CCCCNC(=O)COCCOCCNC(=O)COCCOCCNC(=O)CC[C@H](NC(=O)CCCCCCCCCOc1ccc(C(=O)O)cc1)C(=O)O)C(=O)NCC(=O)N[C@@H](CCC(=O)O)C(=O)NCC(=O)O)C(C)C [Example 31, N^ε27-[2-[2-[2-[[2-[2-[2-[[(4S)-4-carboxy-4-[10-(4-carboxyphenoxy)decanoylamino]butanoyl]amino]ethoxy]ethoxy]acetyl]amino]ethoxy]ethoxy]acetyl], N^ε36-[2-[2-[2-[[2-[2-[2-[[(4S)-4-carboxy-4-[10-(4-carboxyphenoxy)decanoylamino]butanoyl]amino]ethoxy]ethoxy]acetyl]amino]ethoxy]ethoxy]acetyl]-[Aib^8,Glu^22,Arg^26,Lys^27,Glu^30,Arg^34,Lys^36]-GLP-1-(7-37)-peptidyl-Glu-Gly] (H-H[Aib]EGTFTSDVSSYLEEQAARK([AEEA-AEEA-γGlu-Decanoyl(10-(4-HOOC-PhO))])FIEWLVRGK([AEEA-AEEA-γGlu-Decanoyl(10-(4-HOOC-PhO))])GEG-OH; N-terminus and C-terminus assumed)
Human GLP-1 receptor [1]
  Ratio [(IC50/nM) high HSA]/[(IC50/nM) low HSA]: 629
[2]
  half-life: 19 h
